For one data set, the target named is human sEH (Homo sapiens (Human), UniProt P34913). Nature of the data set: Fluorescence-based sEH inhibitor screening assay (PHOME substrate). The conditions noted are these: dose-dependent fluorescence assay. It counts as biochemical. Here is the method: Fluorescence-based sEH inhibitor screening assay provided a convenient method for screening human epoxide hydrolase inhibitors. The assay utilized (3-phenyl-oxiranyl)-acetic acid cyano-(6-methoxy-naphthalen-2-yl)-methyl ester (PHOME) as substrate. […] The cyanohydrin quickly decomposed into cyanide ion and the highly fluorescent 6-methoxy-2-naphthaldehyde which was analyzed using an excitation wavelength of 330 nm and emission wavelength of 465 nm after a 30-minute reaction time in darkness.
The background AF was subtracted from the 100% initial activity and inhibitor AFs.

The subject of data set [1] is Plasma protein. Description: Plasma protein binding, mouse. The data set is classed as in vitro ADME.
The nature of data set [2]: Metabolic stability, human. It counts as in vitro ADME.
For data set [3], the system named is Plasma protein. Description: Plasma protein binding, human. It counts as in vitro ADME.
Data set [4] can be described thus: Metabolic stability, mouse. The data set is classed as in vitro ADME.
The next data set concerns Caco-2. Description: Caco-2 permeability. The data set is classed as in vitro ADME. A general note: Caco-2 cells form a polarised layer with tight junctions and transporters.
Data set [5] is described as follows: Aqueous solubility @ pH 7.4. The data set is classed as physicochemical.
The target in data set [6] is inducible nitric oxide synthase (iNOS) (Mus musculus (Mouse), UniProt P29477). Description: iNOS inhibition primary assay. The data set is classed as biochemical. The note with it: 10 μM of each compound; mouse cell line. As to the method: Biochemical assay results are presented as the percent inhibition of specific binding or activity. The concentration of each compound was 10 μM.

The values that follow come from patent US20250049736A1, “SULFONAMIDE DERIVATIVES AND THEIR USE AS SOLUBLE EPOXIDE HYDROLASE INHIBITORS” (THE UNITED STATES OF AMERICA, AS REPRESENTED BY THE …, priority 2021, published 2025).

The IC50 is the concentration at which inhibition is half-maximal. A lower IC50 goes with greater potency in that assay.

Chain of human sEH (P34913 whole entry): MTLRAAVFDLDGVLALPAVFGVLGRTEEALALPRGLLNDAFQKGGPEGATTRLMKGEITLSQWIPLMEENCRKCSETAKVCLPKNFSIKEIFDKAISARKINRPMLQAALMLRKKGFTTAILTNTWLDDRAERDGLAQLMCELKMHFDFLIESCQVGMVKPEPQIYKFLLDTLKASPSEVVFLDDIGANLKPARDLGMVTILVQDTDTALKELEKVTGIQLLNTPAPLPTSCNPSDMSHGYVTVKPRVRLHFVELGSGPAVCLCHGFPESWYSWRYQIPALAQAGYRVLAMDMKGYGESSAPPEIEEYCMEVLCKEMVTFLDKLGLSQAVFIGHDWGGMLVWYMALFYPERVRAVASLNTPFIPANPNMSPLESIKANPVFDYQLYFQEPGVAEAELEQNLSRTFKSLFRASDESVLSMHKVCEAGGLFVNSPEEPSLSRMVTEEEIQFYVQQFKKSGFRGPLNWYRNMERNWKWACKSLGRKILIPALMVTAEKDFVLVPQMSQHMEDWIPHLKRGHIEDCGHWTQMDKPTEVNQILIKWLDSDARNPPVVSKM

`O=C(NC12CC3CC(CC(C3)C1)C2)NS(=O)(=O)c1ccccc1` [Compound 5d, N-(((3s,5s,7s)-adamantan-1-yl)carbamoyl)benzenesulfonamide] came in with an IC50 at human sEH of 104 nM.
Regarding `O=C(NC12CC3CC(CC(C3)C1)C2)NS(=O)(=O)c1ccc2ccccc2c1` [Compound 5e], in the data set on Plasma protein [1], the “Plasma protein binding % of bound comp” value is reported as 98% and the “Plasma protein binding % of stability” value is listed as 88%. Moreover, in data set [2], the “Metabolic stability Half life” value turned out to be 33.4 min and the “Metabolic stability % remaining after 1 h” value stood at 45%. In the data set on Plasma protein [3], the “Plasma protein binding % of stability” value is given as 99%. For the same compound, the IC50 at human sEH came out at 1.21 nM. Moreover, in data set [4], the “Metabolic stability Half life” value was determined as 2.2 min and the “Metabolic stability % remaining after 1 h” value stood at 0%.
Turning to `O=C(NC12CC3CC(CC(C3)C1)C2)NS(=O)(=O)c1ccc(OC(F)(F)F)cc1` [Compound 5i, N-(((3s,5s,7s)-adamantan-1-yl)carbamoyl)-4-(trifluoromethoxy)benzenesulfonamide], the Efflux ratio in the data set on Caco-2 (Caco-2) was 0.8. In addition, the “Caco-2 permeability Aical to Basal (Papp)” value in the data set with Caco-2 (apical to basal) is reported as 14.9 cm/sec (10^−6). In addition, the “Caco-2 permeability Basal to Apical (Papp)” value in the data set on Caco-2 (basal to apical) is recorded as 12.6 cm/sec (10^−6). Moreover, the “Plasma protein binding % of bound comp” value in the data set with Plasma protein [1] amounted to 98%. Moreover, the “Aqueous Solubility @ pH 7.4” value in data set [5] is 53 μg/mL. In addition, the “Metabolic stability Half life” value in data set [2] is listed as 106.3 min; in data set [4], 4.9 min. Moreover, the “Metabolic stability % remaining after 1 h” value in data set [2] is on record as 80%; in data set [4], 0%. Also, the “Plasma protein binding % of stability” value in the data set on Plasma protein [3] is recorded as 99%. The compound also gave an IC50 against human sEH of 1.69 nM.
As for `C/C(N)=N\C(=N\S(=O)(=O)c1ccc(OC(F)(F)F)cc1)NC12CC3CC(CC(C3)C1)C2` [Compound 7i], the IC50 on human sEH was found to be 9.89 nM.
For the compound `CSC(=N)NC(=NS(=O)(=O)c1ccc(C(C)(C)C)cc1)NC12CC3CC(CC(C3)C1)C2` [Compound 8b, methyl N—N′-((3s,5s,7s)-adamantan-1-yl)-N′-((4-(tert-butyl)phenyl)sulfonyl)carbamimidoyl)carbamimidothioate], in data set [6], the “% iNOS inhibition” value amounted to 52%.
On to `CS/C(N)=N/C(=NS(=O)(=O)c1ccc(OC(F)(F)F)cc1)NC12CC3CC(CC(C3)C1)C2` [Compound 8i], for which the half-inhibitory concentration (IC50) against human sEH amounted to 1.02 nM.
Turning to `C[Se]C(=N)NC(=NS(=O)(=O)c1ccc(C(C)(C)C)cc1)NC12CC3CC(CC(C3)C1)C2` [Compound 9b, methyl N—N′-((3s,5s,7s)-adamantan-1-yl)-N′-((4-(tert-butyl)phenyl)sulfonyl)carbamimidoyl)carbamimidoselenoate], the “% iNOS inhibition” value in data set [6] is listed as 95%.
On to `COc1ccc(S(=O)(=O)/N=C(\N=C(/N)[Se]C)NC23CC4CC(CC(C4)C2)C3)cc1` [Compound 9c], for which the “% iNOS inhibition” value in data set [6] is given as 94%.
As to `C[Se]C(=N)NC(=NS(=O)(=O)c1ccc(C#N)cc1)NC12CC3CC(CC(C3)C1)C2` [Compound 9h, methyl N—N′-((3s,5s,7s)-adamantan-1-yl)-N′-((4-cyanophenyl)-sulfonyl)carbamimidoyl)carbamimidoselenoate], the “% iNOS inhibition” value in data set [6] is recorded as 93%.
On human sEH, `C[Se]/C(N)=N/C(=NS(=O)(=O)c1ccc(OC(F)(F)F)cc1)NC12CC3CC(CC(C3)C1)C2` [Compound 9i] returned an IC50 of 3.84 nM. In addition, the “% iNOS inhibition” value in data set [6] worked out at 87%.
Turning to `C[Se]C(=N)NC(=NS(=O)(=O)c1ccc(C(F)(F)F)cc1)NC12CC3CC(CC(C3)C1)C2` [Compound 9j, methyl N—N′-((3s,5s,7s)-adamantan-1-yl)-N′-((4-(trifluoromethyl)phenyl)sulfonyl)carbamimidoyl)carbamimidoselenoate], in data set [6], the “% iNOS inhibition” value was 90%.
As to `O=S(=O)(NC(=S)NC12CC3CC(CC(C3)C1)C2)c1ccccc1` [Compound 11c, N-(((3s,5s,7s)-adamantan-1-yl)carbamothioyl)benzenesulfonamide], the IC50 at human sEH amounted to 131 nM.
For `O=S(=O)(NC(=S)NC12CC3CC(CC(C3)C1)C2)c1ccc(OC(F)(F)F)cc1` [Compound 11d, N-(((3s,5s,7s)-adamantan-1-yl)carbamothioyl)-4-(trifluoromethoxy)benzenesulfonamide], half-maximal inhibition at human sEH (IC50) required 4.66 nM. Compared with the last compound, the IC50 is about 28-fold lower.
The compound `NN/C(=N/S(=O)(=O)c1ccc(OC(F)(F)F)cc1)NC12CC3CC(CC(C3)C1)C2` [Compound 13i] gave an IC50 at human sEH of 154 nM. Compared with the last compound, the IC50 is about 33-fold higher.
